Source: patent US10577395B2 (priority 2014, dated 2020)
Values after ≈ are worked out from the molar mass of the structure shown. Read-outs that look alike come from different tables or passages of the source.

Legend:
[1] = system: vancomycin-resistant strain of E. faecium; assay: MIC reported by Kahne et al., vancomycin-resistant E. faecium; type: cell-based; conditions: Kahne data
VSSA and MRSA = assay: Antimicrobial assay, MIC for VSSA and MRSA together; type: cell-based, S. aureus
Experimental: Assays were carried out following the methods of Clinical and Laboratory Standards Institute; Methods for Dilution Antimicrobial Susceptibility Tests for Bacteria That Grow Aerobically; Approved Standard, […].; CLSI document M07-A8; Clinical and Laboratory Standards Institute: Wayne, Pa., 2009.
This diluted bacterial stock solution was then inoculated into a well of a V-shaped 96-well glass coated microtiter plate, supplemented with serial diluted aliquots of the antibiotic solution DMSO (4 μL), to achieve a total assay volume of 0.1 mL. The plate was then incubated at 37° C. for 18 hours, after which minimal inhibitory concentrations (MICs) were determined by monitoring the cell growth (observed as a pellet) in the wells. The lowest concentration of antibiotic (in μg/mL) capable of eliminating the cell growth in the wells is reported as the MIC.

[2] = system: vancomycin-resistant Enterococcus faecalis (VanA VRE, BM4166); assay: microbe, parasite or virus in culture; type: cell-based; conditions: Enterococcus faecalis, VRE
[3] = system: vancomycin-resistant Enterococcus faecalis (VanB VRE, strain ATCC 51299); assay: microbe, parasite or virus in culture; type: cell-based; conditions: Enterococcus faecalis
[4] = system: methicillin and oxacillin-resistant Staphylococcus aureus subsp. aureus (MRSA strain ATCC 43300); assay: Antimicrobial assay, MIC, MRSA; type: cell-based; conditions: Staphylococcus aureus
[5] = system: vancomycin-sensitive strain of E. faecium; conditions: Kahne et al., Chem. Rev. 2005; cited from earlier work
[6] = system: vancomycin-sensitive Staphylococcus aureus (VSSA strain ATCC 25923); assay: Antimicrobial assay, MIC, vancomycin-sensitive S. aureus; type: cell-based; conditions: Staphylococcus aureus
VanA VRE = assay: Antimicrobial assay, MIC for VanA VRE; type: cell-based, E. faecalis and E. faecium
[7] = system: vancomycin-resistant strain of E. faecium; conditions: Kahne et al., Chem. Rev. 2005; cited from earlier work
[8] = system: Enterococcus faecium (VanA VRE, ATCC BAA-2317); assay: Antimicrobial assay, MIC, VanA E. faecium; type: cell-based; conditions: Enterococcus faecium

With CN[C@H](CC(C)C)C(=O)N[C@H]1C(=O)N[C@@H](CC(N)=O)C(=O)N[C@H]2C(=O)NC3C(=O)N[C@H](C(=O)N[C@H](C(=O)O)c4cc(O)cc(O)c4-c4cc3ccc4O)[C@H](O)c3ccc(c(Cl)c3)Oc3cc2cc(c3OC2OC(CO)C(O)[C@H](O)[C@@H]2O[C@H]2CC(C)(NCc3ccc(-c4ccc(Cl)cc4)cc3)[C@H](O)[C@H](C)O2)Oc2ccc(cc2Cl)[C@H]1O (stereo partly drawn) [Compound 4, N-4-(4′-chlorobiphenyl)methyl vancomycin, reference compound] the “resistant strain less sensitive than the sensitive strain” value [1] was “about 500 times”, the “improvement in activity against VSSA and MRSA on introduction of the (4-chlorobiphenyl)methyl group” value (VSSA and MRSA; Compound 4 vs Compound 1) was 20 fold and the MIC (VSSA and MRSA; Staphylococcus aureus, MRSA, read-out: MIC against VSSA and MRSA) was 0.03 µg/mL (≈ 0.0182 µM). It also gave an MIC ([2]; read-out: MIC, Van A E. faecalis, serum concentration 10%) of 2.5 µg/mL (≈ 1.52 µM), an MIC ([2]; read-out: MIC, Van A E. faecalis, serum concentration 25%) of 5 µg/mL (≈ 3.03 µM) and an MIC ([2]; read-out: MIC, Van A E. faecalis, serum concentration 100%) of 10 µg/mL (≈ 6.06 µM). For the same compound, the MIC ([2]; read-out: MIC, VanA E. faecalis) was 2.5 µg/mL (≈ 1.52 µM), the MIC ([3]; read-out: MIC, Van B E. faecalis, serum concentration 10%) was 0.03 µg/mL (≈ 0.0182 µM) and the MIC ([3]; read-out: MIC, Van B E. faecalis, serum concentration 25%) was 0.06 µg/mL (≈ 0.0364 µM). It also gave an MIC ([3]; read-out: MIC, Van B E. faecalis, serum concentration 100%) of 0.06 µg/mL (≈ 0.0364 µM), an MIC ([3]; read-out: MIC, VanB E. faecalis) of 0.03 µg/mL (≈ 0.0182 µM) and an MIC ([4]; read-out: MIC, MRSA S. aureus) of 0.03 µg/mL (≈ 0.0182 µM). For the same compound, the MIC ([4]; read-out: MIC, MRSA S. aureus, serum concentration 10%) was 0.03 µg/mL (≈ 0.0182 µM), the MIC ([4]; read-out: MIC, MRSA S. aureus, serum concentration 25%) was 0.06 µg/mL (≈ 0.0364 µM) and the MIC ([4]; read-out: MIC, MRSA S. aureus, serum concentration 100%) was 0.06 µg/mL (≈ 0.0364 µM). The “MIC, vancomycin-sensitive strain of E. faecium” value [5] was 0.03 µg/mL, the MIC ([6]; ATCC25923, read-out: MIC, sensitive S. aureus) was 0.03 µg/mL (≈ 0.0182 µM) and the MIC ([6]; ATCC25923, read-out: MIC, sensitive S. aureus, serum concentration 10%) was 0.03 µg/mL (≈ 0.0182 µM). For the same compound, the MIC ([6]; ATCC25923, read-out: MIC, sensitive S. aureus, serum concentration 25%) was 0.03 µg/mL (≈ 0.0182 µM), the MIC ([6]; ATCC25923, read-out: MIC, sensitive S. aureus, serum concentration 100%) was 0.06 µg/mL (≈ 0.0364 µM) and the MIC (VanA VRE; Enterococcus, VRE, read-out: MIC against VanA VRE) was 2.5 µg/mL (≈ 1.52 µM). The “improvement in activity against VanA VRE on introduction of the (4-chlorobiphenyl)methyl group” value (VanA VRE; relative to the analogue without CBP group) was 100 fold, the “MIC, vancomycin-resistant strain of E. faecium” value [7] was 16 µg/mL and the MIC ([8]; read-out: MIC, Van A E. faecium, serum concentration 10%) was 2.5 µg/mL (≈ 1.52 µM). It also gave an MIC ([8]; read-out: MIC, Van A E. faecium, serum concentration 25%) of 5 µg/mL (≈ 3.03 µM), an MIC ([8]; read-out: MIC, Van A E. faecium, serum concentration 100%) of 5 µg/mL (≈ 3.03 µM) and an MIC ([8]; read-out: MIC, VanA E. faecium) of 2.5 µg/mL (≈ 1.52 µM).
